Data reported in ChEMBL document CHEMBL3991601, “The target landscape of clinical kinase drugs” (Science, 2017).
Calls of active or inactive are those of the source.

Assays:
[1] = molecular target: T1, MAP/microtubule affinity-regulating kinase 4 (Homo sapiens, UniProt Q96L34)
T1 sequence (Q96L34 whole entry): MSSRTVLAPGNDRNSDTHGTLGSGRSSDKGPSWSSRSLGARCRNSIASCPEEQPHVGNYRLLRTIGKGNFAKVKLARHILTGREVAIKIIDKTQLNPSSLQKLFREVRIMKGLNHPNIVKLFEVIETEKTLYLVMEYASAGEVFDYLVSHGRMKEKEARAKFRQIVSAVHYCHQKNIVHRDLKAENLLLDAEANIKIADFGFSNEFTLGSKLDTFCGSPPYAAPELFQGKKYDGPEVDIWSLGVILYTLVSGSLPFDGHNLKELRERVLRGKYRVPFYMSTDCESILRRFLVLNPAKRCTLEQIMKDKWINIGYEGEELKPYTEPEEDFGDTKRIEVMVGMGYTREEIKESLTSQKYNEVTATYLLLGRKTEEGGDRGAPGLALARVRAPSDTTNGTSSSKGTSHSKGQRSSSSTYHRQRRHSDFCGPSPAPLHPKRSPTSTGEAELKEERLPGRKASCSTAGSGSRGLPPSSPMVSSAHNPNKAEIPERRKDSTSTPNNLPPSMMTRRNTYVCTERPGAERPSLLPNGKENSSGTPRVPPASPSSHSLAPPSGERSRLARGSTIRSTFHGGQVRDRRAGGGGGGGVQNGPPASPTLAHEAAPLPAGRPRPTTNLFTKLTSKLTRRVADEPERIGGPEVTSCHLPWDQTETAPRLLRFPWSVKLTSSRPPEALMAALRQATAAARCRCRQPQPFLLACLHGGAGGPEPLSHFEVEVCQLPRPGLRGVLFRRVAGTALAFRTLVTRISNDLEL

[2] = molecular target: Tyrosine-protein kinase Lck (Homo sapiens, UniProt P06239)
[3] = molecular target: Hepatocyte growth factor receptor (Homo sapiens, UniProt P08581)
[4] = molecular target: T2, Eukaryotic translation initiation factor 5B (Homo sapiens, UniProt O60841)
T2 sequence (O60841 whole entry): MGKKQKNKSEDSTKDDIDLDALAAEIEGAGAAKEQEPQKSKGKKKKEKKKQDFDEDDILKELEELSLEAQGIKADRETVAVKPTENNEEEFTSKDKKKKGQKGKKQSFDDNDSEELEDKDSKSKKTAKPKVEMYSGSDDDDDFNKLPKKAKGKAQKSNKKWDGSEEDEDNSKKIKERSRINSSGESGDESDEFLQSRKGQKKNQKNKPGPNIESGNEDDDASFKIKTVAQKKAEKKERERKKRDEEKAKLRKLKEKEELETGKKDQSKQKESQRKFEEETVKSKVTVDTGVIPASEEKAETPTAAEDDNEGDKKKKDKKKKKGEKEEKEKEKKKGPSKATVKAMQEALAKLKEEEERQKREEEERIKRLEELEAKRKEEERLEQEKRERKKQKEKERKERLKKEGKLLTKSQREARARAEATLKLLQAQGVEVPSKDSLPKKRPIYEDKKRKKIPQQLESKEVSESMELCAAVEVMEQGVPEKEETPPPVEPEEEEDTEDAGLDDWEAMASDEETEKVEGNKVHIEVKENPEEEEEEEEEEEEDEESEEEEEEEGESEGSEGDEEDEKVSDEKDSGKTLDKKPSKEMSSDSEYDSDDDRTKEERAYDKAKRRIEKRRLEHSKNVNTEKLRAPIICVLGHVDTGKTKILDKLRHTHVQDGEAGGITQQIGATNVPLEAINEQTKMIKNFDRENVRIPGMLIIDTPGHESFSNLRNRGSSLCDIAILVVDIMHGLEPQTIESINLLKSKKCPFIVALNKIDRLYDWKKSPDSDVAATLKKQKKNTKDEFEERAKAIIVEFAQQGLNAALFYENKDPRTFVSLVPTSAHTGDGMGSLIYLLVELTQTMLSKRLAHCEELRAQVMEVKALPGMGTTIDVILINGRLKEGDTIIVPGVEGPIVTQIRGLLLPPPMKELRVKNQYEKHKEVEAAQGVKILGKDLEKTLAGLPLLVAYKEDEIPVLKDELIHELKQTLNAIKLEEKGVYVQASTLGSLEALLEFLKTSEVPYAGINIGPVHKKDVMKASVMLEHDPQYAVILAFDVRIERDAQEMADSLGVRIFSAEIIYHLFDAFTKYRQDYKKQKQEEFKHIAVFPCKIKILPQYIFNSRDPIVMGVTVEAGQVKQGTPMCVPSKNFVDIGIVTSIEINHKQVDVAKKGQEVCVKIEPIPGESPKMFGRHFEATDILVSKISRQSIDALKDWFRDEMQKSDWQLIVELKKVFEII

[5] = molecular target: Serine/threonine-protein kinase 38 (Homo sapiens, UniProt Q15208)
[6] = molecular target: Eukaryotic peptide chain release factor GTP-binding subunit ERF3B (Homo sapiens, UniProt Q8IYD1)
[7] = molecular target: G protein-coupled receptor kinase 6 (Homo sapiens, UniProt P43250)
Note: in the data inactive means no Kd found up to 30 µM.

Sequence of Eukaryotic peptide chain release factor GTP-binding subunit ERF3B (Q8IYD1 whole entry): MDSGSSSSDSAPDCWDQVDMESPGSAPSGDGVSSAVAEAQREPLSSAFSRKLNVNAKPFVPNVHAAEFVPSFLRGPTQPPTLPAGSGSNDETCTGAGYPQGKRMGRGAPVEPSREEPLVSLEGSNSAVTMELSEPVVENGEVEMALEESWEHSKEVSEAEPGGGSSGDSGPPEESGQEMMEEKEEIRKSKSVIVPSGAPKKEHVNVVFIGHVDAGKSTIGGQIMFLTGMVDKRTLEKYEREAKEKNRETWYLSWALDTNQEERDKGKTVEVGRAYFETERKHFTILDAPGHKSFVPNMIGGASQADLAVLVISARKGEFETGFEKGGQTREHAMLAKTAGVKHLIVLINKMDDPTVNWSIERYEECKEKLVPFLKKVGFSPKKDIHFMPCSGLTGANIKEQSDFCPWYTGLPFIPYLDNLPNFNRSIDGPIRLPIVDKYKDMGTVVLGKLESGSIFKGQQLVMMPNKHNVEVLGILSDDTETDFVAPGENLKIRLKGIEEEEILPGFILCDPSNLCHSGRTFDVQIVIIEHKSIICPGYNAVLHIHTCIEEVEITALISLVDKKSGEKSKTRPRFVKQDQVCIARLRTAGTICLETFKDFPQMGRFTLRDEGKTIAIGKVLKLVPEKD
Sequence of Tyrosine-protein kinase Lck (P06239 whole entry): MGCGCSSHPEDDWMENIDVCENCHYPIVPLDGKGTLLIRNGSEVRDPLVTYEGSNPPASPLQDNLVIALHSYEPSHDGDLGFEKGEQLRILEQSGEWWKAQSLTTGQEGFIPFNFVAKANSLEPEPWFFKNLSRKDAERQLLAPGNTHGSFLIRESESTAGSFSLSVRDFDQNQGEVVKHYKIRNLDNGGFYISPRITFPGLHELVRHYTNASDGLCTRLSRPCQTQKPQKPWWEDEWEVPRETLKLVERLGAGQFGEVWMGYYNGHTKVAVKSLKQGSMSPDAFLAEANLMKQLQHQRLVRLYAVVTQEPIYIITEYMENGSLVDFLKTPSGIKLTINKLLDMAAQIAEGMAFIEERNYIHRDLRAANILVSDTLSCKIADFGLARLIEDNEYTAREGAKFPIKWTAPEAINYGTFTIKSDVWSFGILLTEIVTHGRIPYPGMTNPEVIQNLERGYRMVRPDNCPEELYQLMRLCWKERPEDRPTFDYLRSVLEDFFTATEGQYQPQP
Sequence of G protein-coupled receptor kinase 6 (P43250 whole entry): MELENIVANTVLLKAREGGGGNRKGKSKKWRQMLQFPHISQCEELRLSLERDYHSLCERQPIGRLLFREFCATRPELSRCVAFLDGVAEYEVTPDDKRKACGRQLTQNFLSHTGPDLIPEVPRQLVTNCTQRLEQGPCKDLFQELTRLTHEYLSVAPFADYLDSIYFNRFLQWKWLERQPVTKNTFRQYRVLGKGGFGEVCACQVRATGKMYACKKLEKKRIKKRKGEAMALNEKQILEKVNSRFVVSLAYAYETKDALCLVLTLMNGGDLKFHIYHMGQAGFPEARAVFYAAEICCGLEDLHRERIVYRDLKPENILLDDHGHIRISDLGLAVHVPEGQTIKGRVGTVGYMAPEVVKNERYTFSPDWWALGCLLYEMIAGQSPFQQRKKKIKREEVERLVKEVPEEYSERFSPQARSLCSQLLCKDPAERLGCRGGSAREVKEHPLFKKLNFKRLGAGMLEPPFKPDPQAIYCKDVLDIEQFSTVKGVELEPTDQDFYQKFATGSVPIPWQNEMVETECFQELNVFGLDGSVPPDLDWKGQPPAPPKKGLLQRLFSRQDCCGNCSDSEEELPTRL
Sequence of Hepatocyte growth factor receptor (P08581 whole entry): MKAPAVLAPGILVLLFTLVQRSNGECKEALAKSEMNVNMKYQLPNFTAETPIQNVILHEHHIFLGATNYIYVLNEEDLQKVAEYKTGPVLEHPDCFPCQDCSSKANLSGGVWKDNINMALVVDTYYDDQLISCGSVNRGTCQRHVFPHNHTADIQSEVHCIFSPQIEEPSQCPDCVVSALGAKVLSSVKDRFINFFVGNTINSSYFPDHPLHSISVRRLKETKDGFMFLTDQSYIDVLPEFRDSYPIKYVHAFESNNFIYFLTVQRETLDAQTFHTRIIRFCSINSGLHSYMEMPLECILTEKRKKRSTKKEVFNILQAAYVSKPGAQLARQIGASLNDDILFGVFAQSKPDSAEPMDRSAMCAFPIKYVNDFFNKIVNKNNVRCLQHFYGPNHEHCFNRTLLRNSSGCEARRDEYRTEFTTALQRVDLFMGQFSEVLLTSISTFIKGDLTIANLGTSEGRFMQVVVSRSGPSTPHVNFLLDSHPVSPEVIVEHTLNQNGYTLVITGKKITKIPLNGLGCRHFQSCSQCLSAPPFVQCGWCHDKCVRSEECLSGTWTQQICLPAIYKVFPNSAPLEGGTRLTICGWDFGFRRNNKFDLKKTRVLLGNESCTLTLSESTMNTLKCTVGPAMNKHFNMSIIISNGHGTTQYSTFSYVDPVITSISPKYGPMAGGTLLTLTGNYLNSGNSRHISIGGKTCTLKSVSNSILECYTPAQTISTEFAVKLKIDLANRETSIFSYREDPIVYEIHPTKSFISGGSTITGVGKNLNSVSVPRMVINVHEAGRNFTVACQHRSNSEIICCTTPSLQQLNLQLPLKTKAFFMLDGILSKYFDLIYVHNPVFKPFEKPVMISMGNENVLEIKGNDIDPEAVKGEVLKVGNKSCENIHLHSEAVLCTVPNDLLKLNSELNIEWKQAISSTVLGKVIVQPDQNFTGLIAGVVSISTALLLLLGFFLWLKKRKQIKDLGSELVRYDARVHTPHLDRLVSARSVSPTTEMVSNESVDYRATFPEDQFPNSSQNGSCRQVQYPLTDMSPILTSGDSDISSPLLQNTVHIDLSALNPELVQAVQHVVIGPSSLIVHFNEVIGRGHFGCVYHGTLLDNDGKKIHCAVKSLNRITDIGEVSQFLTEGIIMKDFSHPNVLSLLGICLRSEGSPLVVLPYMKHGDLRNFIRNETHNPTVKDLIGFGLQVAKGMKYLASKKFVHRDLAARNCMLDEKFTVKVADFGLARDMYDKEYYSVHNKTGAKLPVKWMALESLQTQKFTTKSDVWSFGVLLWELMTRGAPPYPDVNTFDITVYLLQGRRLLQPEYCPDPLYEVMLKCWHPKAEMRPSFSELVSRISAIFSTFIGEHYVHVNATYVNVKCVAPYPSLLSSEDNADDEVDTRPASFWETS
Sequence of Serine/threonine-protein kinase 38 (Q15208 whole entry): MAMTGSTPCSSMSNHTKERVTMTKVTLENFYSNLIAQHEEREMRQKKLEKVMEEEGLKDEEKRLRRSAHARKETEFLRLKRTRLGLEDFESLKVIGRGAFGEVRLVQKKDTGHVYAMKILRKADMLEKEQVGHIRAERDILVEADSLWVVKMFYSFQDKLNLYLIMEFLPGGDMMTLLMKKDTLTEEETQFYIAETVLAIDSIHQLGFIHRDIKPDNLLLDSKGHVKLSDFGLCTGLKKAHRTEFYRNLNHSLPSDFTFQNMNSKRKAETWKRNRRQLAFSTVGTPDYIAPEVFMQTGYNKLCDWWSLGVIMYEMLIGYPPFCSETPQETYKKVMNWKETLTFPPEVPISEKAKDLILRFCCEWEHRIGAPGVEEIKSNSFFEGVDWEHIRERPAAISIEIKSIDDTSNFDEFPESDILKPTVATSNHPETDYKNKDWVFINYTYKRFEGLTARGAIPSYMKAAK

| SMILES | Kd [1] | Kd [2] | Kd [3] | Kd [4] | Kd [5] | Kd [6] | Kd [7] |
| --- | --- | --- | --- | --- | --- | --- | --- |
| O=c1[nH]c([C@@H]2CCCN2)nc2c1oc1ccc(Cl)cc12 | > 30 µM (inactive) | > 30 µM (inactive) | > 30 µM (inactive) | > 30 µM (inactive) | > 30 µM (inactive) | – | – |
| C=CCn1c(=O)c2cnc(Nc3ccc(N4CCN(C)CC4)cc3)nc2n1-c1cccc(C(C)(C)O)n1 [ADAVOSERTIB] | > 30 µM (inactive) | – | – | > 30 µM (inactive) | > 30 µM (inactive) | – | – |
| CN(C)C/C=C/C(=O)Nc1cc2c(Nc3ccc(F)c(Cl)c3)ncnc2cc1O[C@H]1CCOC1 [AFATINIB] | – | – | – | – | – | > 30 µM (inactive) | – |
| CCc1cc2c(cc1N1CCC(N3CCOCC3)CC1)C(C)(C)c1[nH]c3cc(C#N)ccc3c1C2=O [ALECTINIB] | > 30 µM (inactive) | > 30 µM (inactive) | > 30 µM (inactive) | > 30 µM (inactive) | – | > 30 µM (inactive) | > 30 µM (inactive) |
| NC[C@@](O)(c1ccc(Cl)cc1)c1ccc(-c2cn[nH]c2)cc1 [AT-13148] | – | > 30 µM (inactive) | > 30 µM (inactive) | > 30 µM (inactive) | > 30 µM (inactive) | > 30 µM (inactive) | – |
| Cc1cc(Nc2nc(N[C@@H](C)c3ncc(F)cn3)ncc2Cl)n[nH]1 [AZD-1480] | > 30 µM (inactive) | > 30 µM (inactive) | > 30 µM (inactive) | > 30 µM (inactive) | – | > 30 µM (inactive) | > 30 µM (inactive) |
| COc1cc2nccc(Oc3ccc(NC(=O)C4(C(=O)Nc5ccc(F)cc5)CC4)cc3)c2cc1OC [CABOZANTINIB] | > 30 µM (inactive) | 1.05 µM (active) | – | > 30 µM (inactive) | – | > 30 µM (inactive) | – |
| CC1(COc2ccc3c(c2)ncn3-c2ccc3cccc(N4CCC(N)CC4)c3n2)COC1 [CRENOLANIB] | 0.025 µM (active) | – | > 30 µM (inactive) | > 30 µM (inactive) | – | > 30 µM (inactive) | > 30 µM (inactive) |
| Cn1c(=O)n(-c2ccc(C(C)(C)C#N)cc2)c2c3cc(-c4cnc5ccccc5c4)ccc3ncc21 [DACTOLISIB] | > 30 µM (inactive) | – | – | > 30 µM (inactive) | > 30 µM (inactive) | > 30 µM (inactive) | – |
| CC[C@@](C)(Nc1ccnc(-c2c[nH]c3ncccc23)n1)C(=O)NCC(F)(F)F [DECERNOTINIB] | – | > 30 µM (inactive) | 0.094 µM | – | > 30 µM (inactive) | – | – |
| O=S(=O)(c1cccc2cnccc12)N1CCCNCC1 [FASUDIL] | > 30 µM (inactive) | – | – | > 30 µM (inactive) | – | > 30 µM (inactive) | > 30 µM (inactive) |
| CCc1nc(C(N)=O)c(Nc2ccc(N3CCC(N4CCN(C)CC4)CC3)c(OC)c2)nc1NC1CCOCC1 [GILTERITINIB] | > 30 µM (inactive) | > 30 µM (inactive) | – | > 30 µM (inactive) | > 30 µM (inactive) | – | – |
| O=S(=O)(c1cccc2c(O)nccc12)N1CCCNCC1 [HYDROXYFASUDIL] | – | – | > 30 µM (inactive) | > 30 µM (inactive) | – | > 30 µM (inactive) | > 30 µM (inactive) |
| C#Cc1cccc(Nc2ncnc3cc4c(cc23)OCCOCCOCCO4)c1 [ICOTINIB] | > 30 µM (inactive) | > 30 µM (inactive) | > 30 µM (inactive) | > 30 µM (inactive) | > 30 µM (inactive) | – | > 30 µM (inactive) |
| COc1cc2ncnc3c2cc1OCCCCCN(C)Cc1ccc(Br)cc1N3 [JNJ-26483327] | > 30 µM (inactive) | > 30 µM (inactive) | > 30 µM (inactive) | > 30 µM (inactive) | > 30 µM (inactive) | – | – |
| CC1(C)CNc2cc(NC(=O)c3cccnc3NCc3ccncc3)ccc21 [MOTESANIB] | – | – | – | > 30 µM (inactive) | – | 0.003 µM | > 30 µM (inactive) |
| COc1cccc2cc(-c3nc([C@H]4CC[C@H](C(=O)O)CC4)n4ncnc(N)c34)[nH]c12 [OSI-027] | > 30 µM (inactive) | > 30 µM (inactive) | – | > 30 µM (inactive) | – | > 30 µM (inactive) | > 30 µM (inactive) |
| C=CC(=O)Nc1cc(Nc2nccc(-c3cn(C)c4ccccc34)n2)c(OC)cc1N(C)CCN(C)C [OSIMERTINIB] | > 30 µM (inactive) | > 30 µM (inactive) | – | > 30 µM (inactive) | > 30 µM (inactive) | > 30 µM (inactive) | > 30 µM (inactive) |
| O=C(NC[C@H](O)CO)c1ccncc1Nc1ccc(I)cc1F [PIMASERTIB] | > 30 µM (inactive) | > 30 µM (inactive) | > 30 µM (inactive) | > 30 µM (inactive) | – | > 30 µM (inactive) | – |
| COc1cc(F)c(F)c(Nc2ccc(I)cc2F)c1NS(=O)(=O)C1(C[C@H](O)CO)CC1 [REFAMETINIB] | > 30 µM (inactive) | > 30 µM (inactive) | > 30 µM (inactive) | > 30 µM (inactive) | > 30 µM (inactive) | – | > 30 µM (inactive) |
| CC(C)(O)CC(=O)NCCn1ccc2ncnc(Nc3ccc(Oc4cccc(C(F)(F)F)c4)c(Cl)c3)c21 [TAK-285] | > 30 µM (inactive) | – | – | – | > 30 µM (inactive) | – | – |
| Cn1c(=O)c(F)c(Nc2ccc(I)cc2F)c2c(=O)n(C[C@@H](O)CO)cnc21 [TAK-733] | > 30 µM (inactive) | > 30 µM (inactive) | > 30 µM (inactive) | > 30 µM (inactive) | > 30 µM (inactive) | – | > 30 µM (inactive) |
| CNC(=O)c1cc(COc2nnc(Nc3ccc(Cl)cc3)c3ccoc23)ccn1 [TELATINIB] | > 30 µM (inactive) | > 30 µM (inactive) | > 30 µM (inactive) | > 30 µM (inactive) | – | – | > 30 µM (inactive) |
| C[C@@H]1COC(Nc2ccc3ncnc(Nc4ccc(OCc5nccs5)c(Cl)c4)c3c2)=N1 [VARLITINIB] | > 30 µM (inactive) | > 30 µM (inactive) | > 30 µM (inactive) | – | > 30 µM (inactive) | – | > 30 µM (inactive) |
| CNC(=O)c1cccc(-c2ccc3c(N4CCOC[C@@H]4C)nc(N4CCOC[C@@H]4C)nc3n2)c1 [VISTUSERTIB] | > 30 µM (inactive) | > 30 µM (inactive) | > 30 µM (inactive) | > 30 µM (inactive) | > 30 µM (inactive) | – | > 30 µM (inactive) |
| NC(=O)c1ccc(N(C(N)=O)c2c(F)cccc2F)nc1-c1ccc(F)cc1F [VX-702] | > 30 µM (inactive) | > 30 µM (inactive) | > 30 µM (inactive) | > 30 µM (inactive) | > 30 µM (inactive) | – | – |
| COc1cc2ncnc(Nc3ccc(O)cc3)c2cc1OC [WHI-P131] | – | > 30 µM (inactive) | > 30 µM (inactive) | > 30 µM (inactive) | > 30 µM (inactive) | – | – |
